From patent US8183351B2, “Avermectin derivatives” (Bayer Cropscience AG, priority 2006, dated 2012) come the findings set out here.

Type in all cases: in vivo
Assay [1] relates to larvae of the mustard beetle (Phaedon cochleariae). Kind of assay: Phaedon test (PHAECO spray treatment). The note with it: 4 ppm active compound, sprayed Chinese cabbage discs. As for the experimental part:
Phaedon Test (PHAECO Spray Treatment)
• Solvents: 78 parts by weight of acetone • 1.5 parts by weight of dimethylformamide • Emulsifier: 0.5 part by weight of alkylaryl polyglyycol ether
After the desired period of time, the effect in % is determined. 100% means that all beetle larvae have been killed; 0% means that none of the beetle larvae have been killed.

Another assay relates to Lucilia cuprina larvae. Kind of assay: Lucilia cuprina test (LUCICU). The settings on record: treated horsemeat. As for the experimental part: Lucilia cuprina Test (LUCICU)
Description for Examples A and B
• Solvent: Dimethyl sulphoxide
To produce a suitable preparation of active compound, 1 part by weight of active compound is mixed with the stated amount of water and the concentrate is diluted with water to the desired concentration.
Containers containing horsemeat treated with the active compound preparation of the desired concentration are populated with Lucilia cuprina larvae.
After the desired period of time, the kill in % is determined. 100% means that all larvae have been killed; 0% means that none of the larvae have been killed.
In this test, for example, the following compounds of the preparation examples show good activity: see table

For assay [2], the system named is caterpillars of the army worm (Spodoptera frugiperda). The experiment in a line: Spodoptera frugiperda test (SPODFR spray treatment). The settings on record: Example I; 4 ppm active compound; sprayed maize leaf discs. The protocol: Spodoptera frugiperda Test (SPODFR Spray Treatment)
• Solvents: 78.0 parts by weight of acetone • 1.5 parts by weight of dimethylformamide • Emulsifier: 0.5 part by weight of alkylaryl polyglyycol ether
After the desired period of time, the effect in % is determined. 100% means that all caterpillars have been killed; 0% means that none of the caterpillars have been killed.

Setting [3] is: Example A, 0.8 ppm active compound.
[4] abbreviates: Example B, 0.16 ppm active compound.

`CCC(C)C1OC2(C=CC1C)CC1CC(CC=C(C)C(OC3CC(OC)C(OC(=O)C(C)NC(C)=O)C(C)O3)C(C)C=CC=C3COC4C(O)C(C)=CC(C(=O)O1)C34O)O2` (mixture of isomers) [Example 54]: the “Kill rate in % after 7 days” value in assay [1] (Example G) is reported as 100%. Besides, the “Kill rate in % after 2 days” value in the assay on Lucilia cuprina larvae (setting [3]) turned out to be 80%.
With `CCC(C)C1OC2(C=CC1C)CC1CC(CC=C(C)C(OC3CC(OC)C(OC(=O)C(C)n4nc(OC)n(C)c4=O)C(C)O3)C(C)C=CC=C3COC4C(O)C(C)=CC(C(=O)O1)C34O)O2` (mixture of isomers) [Example 100], in the assay on Lucilia cuprina larvae (setting [3]), the “Kill rate in % after 2 days” value is listed as 100%.
For `CC[C@H](C)[C@H]1OC2(C=C[C@@H]1C)C[C@@H]1C[C@@H](C/C=C(\C)[C@@H](OC3CC(OC)C(OC(=O)C4CC4)C(C)O3)[C@@H](C)/C=C/C=C3\CO[C@@H]4[C@H](O)C(C)=CC(C(=O)O1)[C@]34O)O2` (stereo partly drawn) [Example 1, 4′-O-(cyclopropylcarbonyl)-avermectin B1 monosaccharide], the “Kill rate in % after 7 days” value in assay [1] (Example D) is 90%. Also, in the assay on Lucilia cuprina larvae (setting [3]), the “Kill rate in % after 2 days” value is 100%.
For the compound `CC[C@H](C)[C@H]1OC2(C=C[C@@H]1C)C[C@@H]1C[C@@H](C/C=C(\C)[C@@H](OC3CC(OC)C(OC(=O)CC(C)C)C(C)O3)[C@@H](C)/C=C/C=C3\CO[C@@H]4[C@H](O)C(C)=CC(C(=O)O1)[C@]34O)O2` (stereo partly drawn) [Example 4], the “Kill rate in % after 2 days” value in the assay with Lucilia cuprina larvae (setting [3]) stood at 100%.
Consider `CC[C@H](C)[C@H]1OC2(C=C[C@@H]1C)C[C@@H]1C[C@@H](C/C=C(\C)[C@@H](OC3CC(OC)C(OC(=O)C(C)(C)C)C(C)O3)[C@@H](C)/C=C/C=C3\CO[C@@H]4[C@H](O)C(C)=CC(C(=O)O1)[C@]34O)O2` (stereo partly drawn) [Example 5], for which the “Kill rate in % after 2 days” value in the assay with Lucilia cuprina larvae (setting [3]) turned out to be 100%.
For the compound `CCC(=O)OC1C(C)OC(O[C@@H]2/C(C)=C/C[C@@H]3C[C@@H](CC4(C=C[C@H](C)[C@@H]([C@@H](C)CC)O4)O3)OC(=O)C3C=C(C)[C@@H](O)[C@H]4OC/C(=C\C=C\[C@@H]2C)[C@@]34O)CC1OC` (stereo partly drawn) [Example 6], in the assay on Lucilia cuprina larvae (setting [3]), the “Kill rate in % after 2 days” value is given as 98%.
As for `CCC(C)C(=O)OC1C(C)OC(O[C@@H]2/C(C)=C/C[C@@H]3C[C@@H](CC4(C=C[C@H](C)[C@@H]([C@@H](C)CC)O4)O3)OC(=O)C3C=C(C)[C@@H](O)[C@H]4OC/C(=C\C=C\[C@@H]2C)[C@@]34O)CC1OC` (stereo partly drawn) [Example 9], the “Kill rate in % after 2 days” value with Lucilia cuprina larvae (setting [3]) turned out to be 100%.
`CC[C@H](C)[C@H]1OC2(C=C[C@@H]1C)C[C@@H]1C[C@@H](C/C=C(\C)[C@@H](OC3CC(OC)C(OC(=O)Cc4ccsc4)C(C)O3)[C@@H](C)/C=C/C=C3\CO[C@@H]4[C@H](O)C(C)=CC(C(=O)O1)[C@]34O)O2` (stereo partly drawn) [Example 12]: in the assay with Lucilia cuprina larvae (setting [3]), the “Kill rate in % after 2 days” value is given as 100%.
Same read-out and setting: the same measure for `CC[C@H](C)[C@H]1OC2(C=C[C@@H]1C)C[C@@H]1C[C@@H](C/C=C(\C)[C@@H](OC3CC(OC)C(OC(=O)C4(C)CC4)C(C)O3)[C@@H](C)/C=C/C=C3\CO[C@@H]4[C@H](O)C(C)=CC(C(=O)O1)[C@]34O)O2` (stereo partly drawn) [Example 15]: 100%.
Still for that read-out and setting: the same measure for `CC[C@H](C)[C@H]1OC2(C=C[C@@H]1C)C[C@@H]1C[C@@H](C/C=C(\C)[C@@H](OC3CC(OC)C(OC(=O)C4CCCC4)C(C)O3)[C@@H](C)/C=C/C=C3\CO[C@@H]4[C@H](O)C(C)=CC(C(=O)O1)[C@]34O)O2` (stereo partly drawn) [Example 16]: 100%.
For the compound `CC[C@H](C)[C@H]1OC2(CC[C@@H]1C)C[C@@H]1C[C@@H](C/C=C(\C)[C@@H](OC3CC(OC)C(OC(=O)Cn4ccnn4)C(C)O3)[C@@H](C)/C=C/C=C3\CO[C@@H]4[C@H](O)C(C)=CC(C(=O)O1)[C@]34O)O2` (stereo partly drawn) [Example 18], the “Kill rate in % after 7 days” value in assay [1] (Example G) is reported as 100%. The “Kill rate in % after 2 days” value with Lucilia cuprina larvae (setting [4]) is 100%.
With `CC[C@H](C)[C@H]1OC2(C=C[C@@H]1C)C[C@@H]1C[C@@H](C/C=C(\C)[C@@H](OC3CC(OC)C(OC(=O)C(C)(C)n4nc(C)cc4C)C(C)O3)[C@@H](C)/C=C/C=C3\CO[C@@H]4[C@H](O)C(C)=CC(C(=O)O1)[C@]34O)O2` (stereo partly drawn) [Example 19], in the assay with Lucilia cuprina larvae (setting [4]), the “Kill rate in % after 2 days” value was found to be 100%.
Turning to `CC[C@H](C)[C@H]1OC2(C=C[C@@H]1C)C[C@@H]1C[C@@H](C/C=C(\C)[C@@H](OC3CC(OC)C(OC(=O)C(C)(C)n4cncn4)C(C)O3)[C@@H](C)/C=C/C=C3\CO[C@@H]4[C@H](O)C(C)=CC(C(=O)O1)[C@]34O)O2` (stereo partly drawn) [Example 20], in assay [1] (Example D), the “Kill rate in % after 7 days” value was 80%. Moreover, in the assay with Lucilia cuprina larvae (setting [3]), the “Kill rate in % after 2 days” value stood at 100%.
For the compound `CC[C@H](C)[C@H]1OC2(C=C[C@@H]1C)C[C@@H]1C[C@@H](C/C=C(\C)[C@@H](OC3CC(OC)C(OC(=O)Cc4nonc4C)C(C)O3)[C@@H](C)/C=C/C=C3\CO[C@@H]4[C@H](O)C(C)=CC(C(=O)O1)[C@]34O)O2` (stereo partly drawn) [Example 25], the “Kill rate in % after 2 days” value in the assay on Lucilia cuprina larvae (setting [3]) was 95%.
In the case of `CC[C@H](C)[C@H]1OC2(C=C[C@@H]1C)C[C@@H]1C[C@@H](C/C=C(\C)[C@@H](OC3CC(OC)C(OC(=O)Cc4c(C)nn(C)c4C)C(C)O3)[C@@H](C)/C=C/C=C3\CO[C@@H]4[C@H](O)C(C)=CC(C(=O)O1)[C@]34O)O2` (stereo partly drawn) [Example 26], in the assay on Lucilia cuprina larvae (setting [3]), the “Kill rate in % after 2 days” value turned out to be 100%.
On the same count and under the same terms, the same measure for `CC[C@H](C)[C@H]1OC2(C=C[C@@H]1C)C[C@@H]1C[C@@H](C/C=C(\C)[C@@H](OC3CC(OC)C(OC(=O)Cc4sccc4C)C(C)O3)[C@@H](C)/C=C/C=C3\CO[C@@H]4[C@H](O)C(C)=CC(C(=O)O1)[C@]34O)O2` (stereo partly drawn) [Example 27]: 100%.
As to `CC[C@H](C)[C@H]1OC2(C=C[C@@H]1C)C[C@@H]1C[C@@H](C/C=C(\C)[C@@H](OC3CC(OC)C(OC(=O)CCN4CCOCC4)C(C)O3)[C@@H](C)/C=C/C=C3\CO[C@@H]4[C@H](O)C(C)=CC(C(=O)O1)[C@]34O)O2` (stereo partly drawn) [Example 83], the “Kill rate in % after 7 days” value in assay [1] (Example G) was 100%. Further, in assay [2], the “Kill rate in % after 5 days” value was determined as 100%.
Regarding `CC[C@H](C)[C@H]1OC2(C=C[C@@H]1C)C[C@@H]1C[C@@H](C/C=C(\C)[C@@H](OC3CC(OC)C(OC(=O)C4CCCN(C)C4)C(C)O3)[C@@H](C)/C=C/C=C3\CO[C@@H]4[C@H](O)C(C)=CC(C(=O)O1)[C@]34O)O2` (stereo partly drawn) [Example 84], the “Kill rate in % after 7 days” value in assay [1] (Example G) amounted to 100%. In assay [2], the “Kill rate in % after 5 days” value stood at 100%.
For the compound `CC[C@H](C)[C@H]1OC2(C=C[C@@H]1C)C[C@@H]1C[C@@H](C/C=C(\C)[C@@H](OC3CC(OC)C(OC(=O)CC4C(=O)NCCN4C)C(C)O3)[C@@H](C)/C=C/C=C3\CO[C@@H]4[C@H](O)C(C)=CC(C(=O)O1)[C@]34O)O2` (stereo partly drawn) [Example 85], the “Kill rate in % after 7 days” value in assay [1] (Example G) is 83%. Also, the “Kill rate in % after 5 days” value in assay [2] turned out to be 100%.
The corresponding values for `CC[C@H](C)[C@H]1OC2(C=C[C@@H]1C)C[C@@H]1C[C@@H](C/C=C(\C)[C@@H](OC3CC(OC)C(OC(=O)CCN4CCCCC4)C(C)O3)[C@@H](C)/C=C/C=C3\CO[C@@H]4[C@H](O)C(C)=CC(C(=O)O1)[C@]34O)O2` (stereo partly drawn) [Example 87] are 100% and 100%.
As to `CC[C@H](C)[C@H]1OC2(C=C[C@@H]1C)C[C@@H]1C[C@@H](C/C=C(\C)[C@@H](OC3CC(OC)C(OC(=O)CCN4CCN(C)CC4)C(C)O3)[C@@H](C)/C=C/C=C3\CO[C@@H]4[C@H](O)C(C)=CC(C(=O)O1)[C@]34O)O2` (stereo partly drawn) [Example 88], the “Kill rate in % after 7 days” value in assay [1] (Example G) came out at 100%. The “Kill rate in % after 5 days” value in assay [2] came out at 100%.
Turning to `CC[C@H](C)[C@H]1OC2(C=C[C@@H]1C)C[C@@H]1C[C@@H](C/C=C(\C)[C@@H](OC3CC(OC)C(OC(=O)C(C)C)C(C)O3)[C@@H](C)/C=C/C=C3\CO[C@@H]4[C@H](O)C(C)=CC(C(=O)O1)[C@]34O)O2` (stereo partly drawn) [Example 98, 4′-O-Isobutyryl-avermectin B1 monosaccharide], in the assay on Lucilia cuprina larvae (setting [3]), the “Kill rate in % after 2 days” value was found to be 95%.
For the compound `CC[C@H](C)[C@H]1OC2(CC[C@@H]1C)C[C@@H]1C[C@@H](C/C=C(\C)[C@@H](OC3CC(OC)C(OC(=O)CN)C(C)O3)[C@@H](C)/C=C/C=C3\CO[C@@H]4[C@H](O)C(C)=CC(C(=O)O1)[C@]34O)O2` (stereo partly drawn) [Example 103], the “Kill rate in % after 7 days” value in assay [1] (Example G) was found to be 100%. Further, the “Kill rate in % after 5 days” value in assay [2] is given as 100%.
For `CC[C@H](C)[C@H]1OC2(C=C[C@@H]1C)C[C@@H]1C[C@@H](C/C=C(\C)[C@@H](OC3CC(OC)C(OC(=O)C(C)N4CCNCC4)C(C)O3)[C@@H](C)/C=C/C=C3\CO[C@@H]4[C@H](O)C(C)=CC(C(=O)O1)[C@]34O)O2` (stereo partly drawn) [Example 105], in assay [1] (Example G), the “Kill rate in % after 7 days” value worked out at 100%. In addition, the “Kill rate in % after 5 days” value in assay [2] was 100%.
Turning to `CC[C@H](C)[C@H]1OC2(C=C[C@@H]1C)C[C@@H]1C[C@@H](C/C=C(\C)[C@@H](OC3CC(OC)C(OC(=O)C(C)N4CCOCC4)C(C)O3)[C@@H](C)/C=C/C=C3\CO[C@@H]4[C@H](O)C(C)=CC(C(=O)O1)[C@]34O)O2.O=C(O)c1ccccc1` (stereo partly drawn) [Example 106, 4′-O-(2-Morpholin-4-ylpropanoyl)-avermectin B1 monosaccharide benzoate], the “Kill rate in % after 7 days” value in assay [1] (Example G) was 100%. Also, the “Kill rate in % after 5 days” value in assay [2] is 100%.
As to `CC[C@H](C)[C@H]1OC2(C=C[C@@H]1C)C[C@@H]1C[C@@H](C/C=C(\C)[C@@H](OC3CC(OC)C(OC(=O)CN4CCNCC4)C(C)O3)[C@@H](C)/C=C/C=C3\CO[C@@H]4[C@H](O)C(C)=CC(C(=O)O1)[C@]34O)O2.O=C(O)c1ccccc1.O=C(O)c1ccccc1` (stereo partly drawn) [Example 107, 4′-O-(piperazin-1-ylacetyl)-avermectin B1 monosaccharide dibenzoate], in assay [1] (Example G), the “Kill rate in % after 7 days” value is 100%. In assay [2], the “Kill rate in % after 5 days” value worked out at 100%.
